Key:
[1] = tested on: splenocytes; experiment: Splenocyte permeability by confocal microscopy; format: cell-based; conditions: 1 μg/mL fluorescent-labeled peptide, ICR mouse splenocytes, culture times 1, 4 and 24 hours
Description: To determine the cell permeability of F1 peptides, 1 μg/mL of fluorescent-labeled F1 and F2 peptides were treated to cultures of splenocytes isolated from 4-week-old ICR mice, followed by culture for 24 hours. Afterwards, intracellular fluorescence expression over culture times (1, 4 and 24 hours) was observed by confocal microscopy. The untreated group with no peptide treatment involved was used as a control, alongside with a GFP peptide ([…]) treated group without cell permeability and a scramble D treated group (negative control).

[2] = tested on: peritoneal macrophages; experiment: Peritoneal macrophage permeability by confocal microscopy; format: cell-based; conditions: 1 μg/mL fluorescent-labeled peptide, ICR mouse peritoneal macrophages, culture times 1, 4 and 24 hours
Description: To determine the cell permeability of F1 peptides, 1 μg/mL of fluorescent-labeled F1 and F2 peptides was treated to cultures of peritoneal macrophages isolated from 4-week-old ICR mice, followed by culture for 24 hours. Afterwards, intracellular fluorescence expression over culture times (1, 4 and 24 hours) was observed by confocal microscopy.

[3] = tested on: skin (epidermis) tissues; experiment: Skin tissue permeability by confocal microscopy; format: in vivo, mouse; conditions: for fluorescence expression in tissues: 1 μg/mL applied to mouse leg skin with cotton swab, cryosection; for difference in fluorescence expression with or without scratches: normal versus needle-scratched skin, 1 μg/mL, 1˜2 hours
Description: To identify the skin tissue permeability of the F1 peptide, the left leg of 4-week-old ICR mice was left unscratched, and the right leg was scratched with a needle. Afterwards, 1 μg/mL of fluorescent-labeled F1 and F2 peptides was applied to both legs with cotton swabs respectively, and after 1˜2 hours, skin (epidermis) tissues were collected, cryosectioned, and observed under confocal microscopy.

[4] = tested on: lymph node cells; experiment: Cell permeability via flow cytometry, lymph node cells; format: cell-based, mouse; conditions: for positive cell frequency (of entire cells): 1 μg/mL
Description: (§1) To determine whether the F1 peptide has entered the cell by penetrating the plasma membrane, splenocytes and lymph node cells were isolated from 4-week-old ICR mice, cultured for 1 hour, treated with 1 μg/mL of fluorescent-labeled F1 and F2 peptides, respectively, and then cultured for 48 hours. Flow cytometry was then used to analyze a frequency of fluorescent-labeled cells over culture time (1, 4, 24, and 48 hours) to determine the frequency of cells into which the peptide moved.

[5] = tested on: splenocytes; experiment: Cell permeability via flow cytometry, splenocytes; format: cell-based, mouse; conditions: culture times 1, 4, 24 and 48 hours
Description: as §1

[6] = tested on: splenocytes; experiment: Cell permeability of peptides with SEQ ID NOS: 22 to 30 via flow cytometry; format: cell-based, mouse; conditions: splenocytes of 8-week-old ICR mice, 1 μg/mL, 24 and 48 hours
Description: To determine whether the F1 peptide enables penetration into cells even if a peptide without cell permeability is linked in the middle of any amino acid sequence, splenocytes were isolated from ICR 8-week-old mice and cultured for 1 hour. Afterwards, 1 μg/mL of fluorescent-labeled peptides (SEQ ID NOS: 22 to 30) was treated to cells respectively, followed by culture for 48 hours. Afterwards, flow cytometry was used to analyze the frequency of fluorescent-labeled cells over the culture time (24 and 48 hours) to determine the frequency of cells into which the peptide moved. […] A total of 4 mice were used, with the number of mice per experimental group (Group) set to 2 and the experiment repeated twice.

[7] = tissue collected after 1˜2 hours, confocal microscopy

Substance: GCCGEIV [Peptide F1]
- intracellular fluorescence expression [1]: showed fluorescence expression in splenocytes
- intracellular fluorescence expression [2]: showed fluorescence expression in peritoneal macrophages
- fluorescence expression in tissues [3, 7]: showed fluorescence expression in tissues
- difference in fluorescence expression with or without scratches [3]: no significant difference
- positive cell frequency (of entire cells) ([4]; over 4 hours): about 40%

Substance: HKFSVSGEGEGDATC [GFP peptide, GFP peptide without cell permeability, used as control, reference compound]
- intracellular fluorescence expression [5]: intracellular fluorescence expression was not observed
- intracellular fluorescence expression ([4]; culture times 1, 4, 24 and 48 hours): intracellular fluorescence expression was not observed

Substance: GCCGEIVDDDDDDDD [Peptide F1D8]
- degree of penetration of the D peptide into the cell compared with R8D control [6]: superior to that of the R8 peptide
- penetration of the DDDDDDDD peptide inside the cell compared with cTATD control [6]: at a level similar to that of the cTAT peptide

Substance: GCDDDDDDDDCGEIV [Peptide F2]
- intracellular fluorescence expression [1]: showed fluorescence expression in splenocytes
- intracellular fluorescence expression [2]: showed fluorescence expression in peritoneal macrophages
- fluorescence expression in tissues [3, 7]: showed fluorescence expression in tissues
- fluorescence expression in hair follicles ([3]; 1 μg/mL applied to mouse leg skin, tissue collected after 1˜2 hours, confocal microscopy): strong fluorescence expression especially in hair follicles
- difference in fluorescence expression with or without scratches [3]: no significant difference
- positive cell frequency (of entire cells) ([4]; over 48 hours): about 60%
